According to patent publication US20210085640A1, “ACYLATED CATECHIN POLYPHENOLS AND METHODS OF THEIR USE FOR THE TREATMENT OF CANCER” (Flagship Pioneering Innovations V, Inc., priority 2018, published 2021):

Tests used:
Format in all cases: cell-based
[1] = tested on: T24 bladder cancer cells; test: Cancer cell survival (CellTiter-Glo), T24; conditions: 72 h
Description: (§1) The cells were prepared as follows. Cells were harvested during logarithmic growth, counted, and adjusted to 4.44×10^4 cells/mL with culture media. 90 μL of suspended cells were added to wells of 96-well plates for a final cell count of 4×10^3 cells/well. The plates were incubated overnight at 37 C with 5% CO2 overnight.
(§2) The test compounds were assayed as follows. Compound solutions were mixed at 10× final concentrations in cell media: 1 μM-10 mM (fatty acids) or 100 nM-1 mM (all other compounds). […] of solution was added to each well of cells in triplicate for each concentration. Well plates were incubated for 72 h at 37 C with 5% CO2 and then assayed with CellTiter-Glo by adding 50 μL of CTG solution to each well. Cells were lysed by shaking on an orbital shaker for 5 min. Plates were incubated at room temperature for 20 min and then each well's luminescence was measured. The surviving percentage of cells was determined as:
(§3) Survival %=(LumTest article−LumMedium control)/(LumNone treated−LumMedium control)[…]
Efficacy was assessed at nine concentration levels for each compound and the 50% inhibition concentration (IC50) determined for each compound.

[2] = tested on: Daudi lymphoma cancer cells; test: Cancer cell survival (CellTiter-Glo), Daudi; conditions: 72 h
Description: as §1, §2, §3
Activity was assessed at nine concentration levels for each compound and the 50% inhibition concentration (IC50) determined for each compound.

[3] = tested on: MCF7 breast cancer cells; test: Cancer cell survival (CellTiter-Glo), MCF7; conditions: 72 h
Description: as §1, §2, §3
(§4) Cytotoxicity was assessed at nine concentration levels for each compound and the 50% inhibition concentration (IC50) determined for each compound.

[4] = tested on: HCT 116 colorectal cancer cells; test: Cancer cell survival (CellTiter-Glo), HCT 116; conditions: HCT 116 cells, 72 h
Description: as §1, §2, §3, §4

[5] = tested on: A549 lung cancer cells; test: Cancer cell survival (CellTiter-Glo), A549; conditions: 72 h
Description: as §1, §2, §3, §4

[6] = tested on: PC-3 prostate cancer cells; test: Cancer cell survival (CellTiter-Glo), PC-3; conditions: PC-3 cells, 72 h
Description: as §1, §2, §3, §4

[7] = tested on: A-431 skin cancer cells; test: Cancer cell survival (CellTiter-Glo), A-431; design: Cell survival at given concentration: unit not given here; conditions: A-431 cells, 72 h
Description: as §1, §2, §3, §4

[8] = tested on: AGS stomach cancer cells; test: Cancer cell survival (CellTiter-Glo), AGS; design: Cell survival at given concentration: unit not given here
Description: as §1, §2, §3, §4

SMILES: CC(=O)O [acetate]
- Cell survival at given concentration ([1]; 1 μM, Table 3.2): 0.97
- Cell survival at given concentration ([1]; 3 μM, Table 3.2): 0.97
- Cell survival at given concentration ([1]; 10 μM, Table 3.2): 1.04
- Cell survival at given concentration ([1]; 32 μM, Table 3.2): 0.97
- Cell survival at given concentration ([1]; 100 μM, Table 3.2): 1.00
- Cell survival at given concentration ([1]; 317 μM): 1.01
- Cell survival at given concentration ([1]; 1 mM): 0.99
- Cell survival at given concentration ([1]; 3 mM): 0.97
- Cell survival at given concentration ([1]; 10 mM): 0.91
- Cell survival at given concentration ([2]; 1 μM, Table 4.2): 1.00
- Cell survival at given concentration ([2]; 3 μM, Table 4.2): 0.99
- Cell survival at given concentration ([2]; 10 μM, Table 4.2): 0.99
- Cell survival at given concentration ([2]; 32 μM, Table 4.2): 1.01
- Cell survival at given concentration ([2]; 100 μM, Table 4.2): 1.02
- Cell survival at given concentration ([2]; 317 μM): 1.02
- Cell survival at given concentration ([2]; 1 mM): 1.01
- Cell survival at given concentration ([2]; 3 mM): 0.97
- Cell survival at given concentration ([2]; 10 mM): 0.75
- Cell survival at given concentration ([3]; 1 μM, Table 5.2): 1.01
- Cell survival at given concentration ([3]; 3 μM, Table 5.2): 1.02
- Cell survival at given concentration ([3]; 10 μM, Table 5.2): 0.98
- Cell survival at given concentration ([3]; 32 μM, Table 5.2): 1.03
- Cell survival at given concentration ([3]; 100 μM, Table 5.2): 1.02
- Cell survival at given concentration ([3]; 317 μM): 1.04
- Cell survival at given concentration ([3]; 1 mM): 0.99
- Cell survival at given concentration ([3]; 3 mM): 0.99
- Cell survival at given concentration ([3]; 10 mM): 0.91
- Cell survival at given concentration ([4]; 1 μM, Table 6.2): 1.01
- Cell survival at given concentration ([4]; 3 μM, Table 6.2): 1.03
- Cell survival at given concentration ([4]; 10 μM, Table 6.2): 1.03
- Cell survival at given concentration ([4]; 32 μM, Table 6.2): 1.03
- Cell survival at given concentration ([4]; 100 μM, Table 6.2): 1.06
- Cell survival at given concentration ([4]; 317 μM): 1.02
- Cell survival at given concentration ([4]; 1 mM): 1.02
- Cell survival at given concentration ([4]; 3 mM): 1.00
- Cell survival at given concentration ([4]; 10 mM): 0.84
- IC50 ([4]; Table 6.2): > 10 mM
- Cell survival at given concentration ([5]; 1 μM, Table 7.2): 1.00
- Cell survival at given concentration ([5]; 3 μM, Table 7.2): 1.01
- Cell survival at given concentration ([5]; 10 μM, Table 7.2): 1.00
- Cell survival at given concentration ([5]; 32 μM, Table 7.2): 1.06
- Cell survival at given concentration ([5]; 100 μM, Table 7.2): 1.09
- Cell survival at given concentration ([5]; 317 μM): 1.02
- Cell survival at given concentration ([5]; 1 mM): 1.03
- Cell survival at given concentration ([5]; 3 mM): 1.03
- Cell survival at given concentration ([5]; 10 mM): 1.00
- Cell survival at given concentration ([6]; 1 μM, Table 8.2): 1.05
- Cell survival at given concentration ([6]; 3 μM, Table 8.2): 1.00
- Cell survival at given concentration ([6]; 10 μM, Table 8.2): 1.02
- Cell survival at given concentration ([6]; 32 μM, Table 8.2): 1.03
- Cell survival at given concentration ([6]; 100 μM, Table 8.2): 1.07
- Cell survival at given concentration ([6]; 317 μM): 1.05
- Cell survival at given concentration ([6]; 1 mM): 1.01
- Cell survival at given concentration ([6]; 3 mM): 1.00
- Cell survival at given concentration ([6]; 10 mM): 0.88
- IC50 ([6]; Table 8.2): > 10 mM
- Cell survival at given concentration ([7]; 1 μM, Table 9.2): 1.02
- Cell survival at given concentration ([7]; 3 μM, Table 9.2): 1.03
- Cell survival at given concentration ([7]; 10 μM, Table 9.2): 1.06
- Cell survival at given concentration ([7]; 32 μM, Table 9.2): 1.03
- Cell survival at given concentration ([7]; 100 μM, Table 9.2): 1.05
- Cell survival at given concentration ([7]; 317 μM): 1.05
- Cell survival at given concentration ([7]; 1 mM): 1.05
- Cell survival at given concentration ([7]; 3 mM): 1.02
- Cell survival at given concentration ([7]; 10 mM): 0.99
- Cell survival at given concentration ([8]; 1 μM, Table 10.2): 0.99
- Cell survival at given concentration ([8]; 3 μM, Table 10.2): 1.00
- Cell survival at given concentration ([8]; 10 μM, Table 10.2): 1.02
- Cell survival at given concentration ([8]; 32 μM, Table 10.2): 1.03
- Cell survival at given concentration ([8]; 100 μM, Table 10.2): 1.03
- Cell survival at given concentration ([8]; 317 μM): 1.03
- Cell survival at given concentration ([8]; 1 mM): 1.02
- Cell survival at given concentration ([8]; 3 mM): 1.03
- Cell survival at given concentration ([8]; 10 mM): 1.02
